Test system: ulcerative colitis patients in an active stage
Test: Clinical study, 960 mg orally 3 times a day for 8 weeks: subscore for stool frequency of Mayo score
Format: in vivo, human
Set-up: Cases by subscore for stool frequency, figure in parentheses: unit not given here
Description: The compound of Example 1 or the compound of Comparative Example 1 was orally administered after meals 3 times a day. The number of the given tablets was 8 per administration (i.e., the amount of the compound (1) of Example 1 administered was 960 mg per administration). The administration period was 8 weeks. The compounds were administered until the timing after the breakfast on the day before the assessment day at Week 8.
[Investigation Timings: Weeks 0, 2, 4, and 8 (or Discontinuation Time)]
Based on the contents described in the symptom-recording diaries and so on, the investigators or sub-investigators investigated stool frequencies in 3 days immediately before each assessment day. Note that when the endoscopic examination on the large intestine was conducted, the investigation days were set to be the closest three days excluding the day of the endoscopic examination on the large intestine, the following day, and if a pre-treatment was performed for the endoscopic examination on the large intestine, the pre-treatment day.
The investigators or sub-investigators investigated the stool frequency per day before the primary disease appeared, which served as a “normal frequency.” An average value (rounded to the nearest whole number) of the stool frequencies of the investigated three days was compared with the “normal frequency,” and scored according to the following criteria.

## COC(=O)[C@H](Cc1ccc(-n2c(=O)c3cc(N(C)C)ccc3n(C)c2=O)cc1)NC(=O)c1c(Cl)cccc1Cl [Example 1, methyl(2S)-2-(2,6-dichlorobenzamide)-3-{4-[6-(dimethylamino)-1-methyl-2,4-dioxo-1,4-dihydroquinazolin-3(2H)-yl]phenyl}propanoate]
Week 0, score 0
  Cases by subscore for stool frequency, figure in parentheses: 3.9
  Number of cases by subscore for stool frequency: 2
Week 0, score 1
  Cases by subscore for stool frequency, figure in parentheses: 17.6
  Number of cases by subscore for stool frequency: 9
Week 0, score 2
  Cases by subscore for stool frequency, figure in parentheses: 41.2
  Number of cases by subscore for stool frequency: 21
Week 0, score 3
  Cases by subscore for stool frequency, figure in parentheses: 37.3
  Number of cases by subscore for stool frequency: 19
Week 2, score 0
  Cases by subscore for stool frequency, figure in parentheses: 9.8
  Number of cases by subscore for stool frequency: 5
Week 2, score 1
  Cases by subscore for stool frequency, figure in parentheses: 25.5
  Number of cases by subscore for stool frequency: 13
Week 2, score 2
  Cases by subscore for stool frequency, figure in parentheses: 49.0
  Number of cases by subscore for stool frequency: 25
Week 2, score 3
  Cases by subscore for stool frequency, figure in parentheses: 15.7
  Number of cases by subscore for stool frequency: 8
Week 2 score 0, Week 0 score 0
  Number of cases, cross tabulation of subscore for stool frequency: 2
Week 2 score 0, Week 0 score 1
  Number of cases, cross tabulation of subscore for stool frequency: 1
Week 2 score 0, Week 0 score 2
  Number of cases, cross tabulation of subscore for stool frequency: 1
Week 2 score 0, Week 0 score 3
  Number of cases, cross tabulation of subscore for stool frequency: 1
Week 2 score 1, Week 0 score 0
  Number of cases, cross tabulation of subscore for stool frequency: 0
Week 2 score 1, Week 0 score 1
  Number of cases, cross tabulation of subscore for stool frequency: 6
Week 2 score 1, Week 0 score 2
  Number of cases, cross tabulation of subscore for stool frequency: 5
Week 2 score 1, Week 0 score 3
  Number of cases, cross tabulation of subscore for stool frequency: 2
Week 2 score 2, Week 0 score 0
  Number of cases, cross tabulation of subscore for stool frequency: 0
Week 2 score 2, Week 0 score 1
  Number of cases, cross tabulation of subscore for stool frequency: 2
Week 2 score 2, Week 0 score 2
  Number of cases, cross tabulation of subscore for stool frequency: 15
Week 2 score 2, Week 0 score 3
  Number of cases, cross tabulation of subscore for stool frequency: 8
Week 2 score 3, Week 0 score 0
  Number of cases, cross tabulation of subscore for stool frequency: 0
Week 2 score 3, Week 0 score 1
  Number of cases, cross tabulation of subscore for stool frequency: 0
Week 2 score 3, Week 0 score 2
  Number of cases, cross tabulation of subscore for stool frequency: 0
Week 2 score 3, Week 0 score 3
  Number of cases, cross tabulation of subscore for stool frequency: 8
Week 4, score 0
  Cases by subscore for stool frequency, figure in parentheses: 11.8
  Number of cases by subscore for stool frequency: 6
Week 4, score 1
  Cases by subscore for stool frequency, figure in parentheses: 47.1
  Number of cases by subscore for stool frequency: 24
Week 4, score 2
  Cases by subscore for stool frequency, figure in parentheses: 25.5
  Number of cases by subscore for stool frequency: 13
Week 4, score 3
  Cases by subscore for stool frequency, figure in parentheses: 15.7
  Number of cases by subscore for stool frequency: 8
Week 4 score 0, Week 0 score 0
  Number of cases, cross tabulation of subscore for stool frequency: 2
Week 4 score 0, Week 0 score 1
  Number of cases, cross tabulation of subscore for stool frequency: 1
Week 4 score 0, Week 0 score 2
  Number of cases, cross tabulation of subscore for stool frequency: 3
Week 4 score 0, Week 0 score 3
  Number of cases, cross tabulation of subscore for stool frequency: 0
Week 4 score 1, Week 0 score 0
  Number of cases, cross tabulation of subscore for stool frequency: 0
Week 4 score 1, Week 0 score 1
  Number of cases, cross tabulation of subscore for stool frequency: 7
Week 4 score 1, Week 0 score 2
  Number of cases, cross tabulation of subscore for stool frequency: 12
Week 4 score 1, Week 0 score 3
  Number of cases, cross tabulation of subscore for stool frequency: 5
Week 4 score 2, Week 0 score 0
  Number of cases, cross tabulation of subscore for stool frequency: 0
Week 4 score 2, Week 0 score 1
  Number of cases, cross tabulation of subscore for stool frequency: 1
Week 4 score 2, Week 0 score 2
  Number of cases, cross tabulation of subscore for stool frequency: 6
Week 4 score 2, Week 0 score 3
  Number of cases, cross tabulation of subscore for stool frequency: 6
Week 4 score 3, Week 0 score 0
  Number of cases, cross tabulation of subscore for stool frequency: 0
Week 4 score 3, Week 0 score 1
  Number of cases, cross tabulation of subscore for stool frequency: 0
Week 4 score 3, Week 0 score 2
  Number of cases, cross tabulation of subscore for stool frequency: 0
Week 4 score 3, Week 0 score 3
  Number of cases, cross tabulation of subscore for stool frequency: 8
Week 8, score 0
  Cases by subscore for stool frequency, figure in parentheses: 21.6
  Number of cases by subscore for stool frequency: 11
Week 8, score 1
  Cases by subscore for stool frequency, figure in parentheses: 45.1
  Number of cases by subscore for stool frequency: 23
Week 8, score 2
  Cases by subscore for stool frequency, figure in parentheses: 17.6
  Number of cases by subscore for stool frequency: 9
Week 8, score 3
  Cases by subscore for stool frequency, figure in parentheses: 15.7
  Number of cases by subscore for stool frequency: 8

Source: patent US10183022B2, “Pharmaceutical composition for treating ulcerative colitis” (EA Pharma Co., Ltd., priority 2014, dated 2019)
